Each structure is given as a SMILES string. Structures can show the parent of a compound that is named as a salt.

The assay deals with relapsed AML cells. Briefly: Drug sensitivity assay, 1,536-well, 3-day culture with individual approved drugs at 10 μM, viability by alamarBlue. Type of assay: cell-based, human. Conditions: number of relapsed AML cases out of 18 tested with >70% cell death; 10 μM, 3-day culture. The procedure, abridged: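 FACS-sorted viable myeloid blasts from thawed AML samples, 4,000-4,500 cells per 5 μL well, cultured in IMDM with 15% BIT, SCF, FLT3L, IL-3, G-CSF. Drugs added per well; after three days percentage of live cells measured to gauge killing.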
A general note: Resazurin is reduced to fluorescent resorufin, in cell work by metabolically active cells.
For `CC(=O)[C@@]1(O)CC[C@H]2[C@@H]3C[C@H](C)C4=CC(=O)C=C[C@]4(C)[C@@]3(F)[C@@H](O)C[C@@]21C` [FLUOROMETHOLONE], the “#Cases >70% cell death” value is on record as 2. In the case of `O=c1[nH]cc(F)c(=O)[nH]1` [FLUOROURACIL], the “#Cases >70% cell death” value is reported as 4. The figure for `OCCN1CCN(CCCN2c3ccccc3Sc3ccc(C(F)(F)F)cc32)CC1` [FLUPHENAZINE] is 3; for `CC1(C)O[C@@H]2C[C@H]3[C@@H]4C[C@H](F)C5=CC(=O)CC[C@]5(C)[C@H]4[C@@H](O)C[C@]3(C)[C@]2(C(=O)CO)O1` [FLURANDRENOLIDE] it is 18. `CC(C)C(=O)Nc1ccc([N+](=O)[O-])c(C(F)(F)F)c1` [FLUTAMIDE]: the “#Cases >70% cell death” value was 2. `CCC(=O)O[C@]1(C(=O)SCF)[C@H](C)C[C@H]2[C@@H]3C[C@H](F)C4=CC(=O)C=C[C@]4(C)[C@@]3(F)[C@@H](O)C[C@@]21C` [FLUTICASONE PROPIONATE]: the “#Cases >70% cell death” value amounted to 3. Turning to `COCCCC/C(=N\OCCN)c1ccc(C(F)(F)F)cc1` [FLUVOXAMINE MALEATE], the “#Cases >70% cell death” value is reported as 1.

As for `Cc1c(Nc2ncccc2C(=O)O)cccc1C(F)(F)F` [FLUXININ], the “#Cases >70% cell death” value was 3. For `CC(C)c1cc(C(C)C)c(-c2csc(N(CCN(C)C)Cc3cccnc3)n2)c(C(C)C)c1` [FOROPAFANT] the value was 6; for `COc1cc2ncnc(Nc3ccc(F)c(Cl)c3)c2cc1OCCCN1CCOCC1` [GEFITINIB], 2; for `Nc1ccn([C@@H]2O[C@H](CO)[C@@H](O)C2(F)F)c(=O)n1` [GEMCITABINE], 16. The figure for `CN(C)c1ccc(C(=C2C=CC(=[N+](C)C)C=C2)c2ccc(N(C)C)cc2)cc1` [GENTIAN VIOLET] is 18. As for `CN1CCN(c2ccc3nc(-c4c(N)c5c(F)cccc5[nH]c4=O)[nH]c3c2)CC1` [GFKI-258], the “#Cases >70% cell death” value is 16. For the molecule `Cc1ccc(S(=O)(=O)NC(=O)NN2CC3CCCC3C2)cc1` (stereo not shown) [GLICLAZIDE], the “#Cases >70% cell death” value was found to be 1. The figure for `N#CN=C(NCCCCCCOc1ccc(Cl)cc1)Nc1ccncc1` [GMX1778] is 16; for `CC(C)Oc1ccc(C(=O)N[C@H](CNC(=O)CN(C)C)Cc2ccc(-c3cn4cccc([C@H](C)O)c4n3)cc2)cc1Cl` [GSK923295] it is 8; for `CCn1cc(-c2ccnc3[nH]c(-c4cccc(CN(C)C)c4)cc23)c(-c2ccc(NC(=O)N(C)C)cc2)n1` [GSK1070916] it is 11.

On to `C[C@@H](Oc1cc(-n2cnc3ccc(CN4CCN(C)CC4)cc32)sc1C(N)=O)c1ccccc1C(F)(F)F` [GSK 461364], for which the “#Cases >70% cell death” value amounted to 9. With `N=C(N)NC(=O)Cc1c(Cl)cccc1Cl` [GUANFACINE HCL], the “#Cases >70% cell death” value was found to be 1. Take `CCC(=O)O[C@]1(C(=O)CCl)[C@@H](C)C[C@H]2[C@@H]3C[C@H](F)C4=CC(=O)C=C[C@]4(C)[C@@]3(F)[C@@H](O)C[C@@]21C` [HALOBETASOL PROPIONATE]: the “#Cases >70% cell death” value is 3. The figure for `COc1ccc2c(c1)[nH]c1c(C)nccc12` [HARMINE] is 3; for `CCOc1cc2ncc(C#N)c(Nc3ccc(OCc4cccc(F)c4)c(Cl)c3)c2cc1NC(=O)/C=C/CN(C)C` [HKI 357] it is 4. For `COc1ccc(S(=O)(=O)N(C(C)=O)c2ccccc2/C=C/c2cc[n+]([O-])cc2)cc1` [HMN-214] the value was 5. For `CC[n+]1c(-c2ccccc2)c2cc(N)ccc2c2ccc(N)cc21` [HOMIDIUM BROMIDE] the value was 1; for `COc1cccc(-c2cc(F)ccc2[C@H]2Cc3nc(N)nc(C)c3C(=O)N2)n1` [HSP-990], 17.

For the molecule `CCN(CC)CCNc1ccc(CO)c2sc3ccccc3c(=O)c12` [HYCANTHONE], the “#Cases >70% cell death” value is reported as 9. As to `CC(=O)[C@@]1(O)CC[C@H]2[C@@H]3CCC4=CC(=O)CC[C@]4(C)[C@H]3CC[C@@]21C` [HYDROXYPROGESTERONE], the “#Cases >70% cell death” value is listed as 2. Turning to `CCCCCN(C)CCC(O)(P(=O)(O)O)P(=O)(O)O` [IBANDRONATE], the “#Cases >70% cell death” value is 1. For `C=CC(=O)N1CCC[C@@H](n2nc(-c3ccc(Oc4ccccc4)cc3)c3c(N)ncnc32)C1` [IBRUTINIB] the value was 2. The figure for `CC(=O)[C@]1(O)Cc2c(O)c3c(c(O)c2[C@@H](O[C@H]2C[C@H](N)[C@H](O)[C@H](C)O2)C1)C(=O)c1ccccc1C3=O` [IDARUBICIN] is 18. As to `NNC(=O)c1ccncc1` [ISONIAZID], the “#Cases >70% cell death” value worked out at 1. The figure for `Cc1ccc(C(=O)N(CCCN)[C@@H](c2nc3cc(Cl)ccc3c(=O)n2Cc2ccccc2)C(C)C)cc1` [ISPINESIB MESYLATE] is 2; for `CCC(C)n1ncn(-c2ccc(N3CCN(c4ccc(OCC5COC(Cn6cncn6)(c6ccc(Cl)cc6Cl)O5)cc4)CC3)cc2)c1=O` (stereo not shown) [ITRACONAZOLE] it is 6; for `CN(C)CC(=O)N1CCC(c2ccc(NC(=O)c3nc(C#N)c[nH]3)c(C3=CCCCC3)c2)CC1` [JNJ-28312141] it is 7. With `CCc1ccc(OCc2ccccc2C(=O)Nc2ccc3nc(C)cc(N)c3c2)cc1` [JTC-801], the “#Cases >70% cell death” value was 18. `COc1ccc2c(c1)CN(C(=O)CCN1CCC(Cc3ccccc3)CC1)CCS2` [K201]: the “#Cases >70% cell death” value came to 4. The figure for `CC(=O)N1CCN(c2ccc(OCC3COC(Cn4ccnc4)(c4ccc(Cl)cc4Cl)O3)cc2)CC1` (stereo not shown) [KETOCONAZOLE] is 5. As for `O=C(c1ccc(/C=C/c2n[nH]c3ccccc23)cc1)N1CCNCC1` [KW-2449], the “#Cases >70% cell death” value is listed as 9. In the case of `CCOC(=O)C1=C(C)NC(C)=C(C(=O)OCC)C1c1ccccc1/C=C/C(=O)OC(C)(C)C` [LACIDIPINE], the “#Cases >70% cell death” value stood at 2.

`CC(=O)O[C@H]1C[C@H](O[C@H]2[C@@H](O)C[C@H](O[C@H]3[C@@H](O)C[C@H](O[C@H]4CC[C@@]5(C)[C@H](CC[C@@H]6[C@@H]5C[C@@H](O)[C@]5(C)[C@@H](C7=CC(=O)OC7)CC[C@]65O)C4)O[C@@H]3C)O[C@@H]2C)O[C@H](C)[C@H]1O[C@@H]1O[C@H](CO)[C@@H](O)[C@H](O)[C@H]1O` [LANATOSIDE C]: the “#Cases >70% cell death” value came to 18. The figure for `CS(=O)(=O)CCNCc1ccc(-c2ccc3ncnc(Nc4ccc(OCc5cccc(F)c5)c(Cl)c4)c3c2)o1` [LAPATINIB] is 2; for `O=C(/C=C/c1ccc(CN(CCO)CCc2c[nH]c3ccccc23)cc1)NO` [LAQ-824] it is 18; for `CC[C@@H](C(=O)[C@@H](C)[C@@H](O)[C@H](C)CCc1ccc(C)c(O)c1C(=O)O)[C@H]1O[C@](CC)([C@H]2CC[C@](O)(CC)[C@H](C)O2)C[C@@H]1C` [LASALOCID SODIUM] it is 10.

Turning to `CC(C)OC(=O)CCC/C=C\C[C@@H]1[C@@H](CC[C@@H](O)CCc2ccccc2)[C@H](O)C[C@@H]1O` [LATANOPROST], the “#Cases >70% cell death” value is on record as 1. For `CCC[C@H](Nc1nc(-c2ccc(NC(=O)NCC)c(OC)c2)ncc1C)c1cccnc1` [LEXIBULIN] the value was 13.

As for `COc1ccc(CN2CCN(C(c3ccc(F)cc3)c3ccc(F)cc3)CC2)c(OC)c1OC` [LOMERIZINE], the “#Cases >70% cell death” value is listed as 7.

Values taken from patent US20210405025A1, “IDENTIFYING COMPOUNDS FOR TREATING CANCER AND USE THEREOF” (THE UAB RESEARCH FOUNDATION, priority 2018, published 2021).
